Test results from patent US20130225623A1, “Methods of Treating Psychiatric or Neurological Disorders with MGLUR Antagonists” (MOUNT SINAI SCHOOL OF MEDICINE, priority 2010, published 2013).
Where “and” joins values, the source holds several entries; their conditions need not be identical. Identical values can stand only once.

Tests used:
Assay type in all cases: cell-based, mouse
[1] = system: field EPSPs in hippocampal slices (area CA1); group I mGluRs; experiment: DHPG-induced long-term depression (mGluR-LTD), hippocampal slice electrophysiology; details: for effect of mGluR blockade on DHPG-induced LTD: Cyfip1 heterozygotes, slices incubated with antagonist and DHPG (MPEP 10 μM; LY367385 100 μM); for depression in synaptic transmission (field EPSP slope): at 30 min of application
Method: (§1) Hippocampal slices (350 μm) were prepared from 4-6 week old heterozygous mice and their wild-type littermate controls. Slices were perfused with Ringer's solution containing (in mM): NaCl, 125.0; KCl, 2.5; MgSO4, 1.3; NaH2PO4, 1.0; NaHCO3, 26.2; CaCl2, 2.5; glucose, 11.0. The Ringer's solution was bubbled with 95% O2/5% CO2, at 32° C., during extracellular recordings (electrode solution: 3 M NaCl). Slices were maintained for 1 hr prior to establishment of a baseline of field excitatory postsynaptic potentials (fEPSPs) recorded from stratum radiatum in area CA1, evoked by stimulation of the Schaffer collateral-commissural afferents (100 μs pulses every 30 s) with bipolar tungsten electrodes placed into area CA3 (Bozdagi et al., 2000). Test stimulus intensity was adjusted to obtain fEPSPs with amplitudes that were one-half of the maximal response. The EPSP initial slope (mV/ms) was determined from the average waveform of four consecutive responses. Cycloheximide (60 μM, Sigma), dihydroxyphenylglycine (DHPG, 50 μM, Sigma), 2-methyl-6-phenylethynyl-pyridine (MPEP, 10 μM, Tocris), LY367385 (100 μM, Tocris), or rapamycin (20 nM, Enzo Life Sciences) were bath-applied for various durations as described in the Examples, below.
(§2) All experiments were performed in the presence of 100 μM 2-amino-5-phosphopentanoic acid (AP5). Paired-pulse responses were measured with interstimulus interval (ISI) of 50 ms, and are expressed as the ratio of the average responses to the second stimulation pulse (FP2) to the first stimulation pulse (FP1). LTP was induced by either a high-frequency stimulus (four trains of 100 Hz, 1 s stimulation separated by 5 min), a threshold levels of theta-burst stimulation (TBS) (5 bursts of four pulses at 100 Hz separated by 200 ms, (Lauterborn et al., 2007), or a single 100 Hz stimulation. To induce an mGluR-dependent LTD, Schaffer collaterals were stimulated by a paired-pulse low-frequency-stimulation (PP-LFS, 1 Hz for 20 min; 50 ms interstimulus interval (Huber et al., […]). DHPG-induced LTD was also used as described in the Examples, below
The mammalian target of rapamycin (mTOR) is an important regulator of translation in long-lasting forms of synaptic plasticity and it has been shown that DHPG-induced mGluR-LTD in hippocampal area CA1 is dependent on mTOR (see Richter and Klann, 2009). To determine whether mTOR is required for mGluR-LTD in Cyfip1 heterozygous mice, hippocampal slices were treated with DHPG in the presence of the mTOR inhibitor rapamycin.
Because mGluR5 activation is essential for mGluR-LTD induction, the effect of mGluR5 blockade on DHPG-induced LTD was examined. […] The effect of mGluR1 blockade on DHPG-induced LTD was also examined. […] The slices were next treated with both mGluR1 (LY367385) and mGluR5 (MPEP) antagonists.

[2] = system: field EPSPs in hippocampal slices (area CA1); experiment: Protein synthesis-dependent LTP induced by high frequency stimulation (HFS), hippocampal slice electrophysiology
[3] = system: field EPSPs at Schaffer collateral-CA1 synapses in acute hippocampal slices; experiment: Paired-pulse low frequency stimulation (PP-LFS)-induced mGluR-LTD, hippocampal slice electrophysiology; details: for effect on PP-LFS-induced LTD: cycloheximide 60 μM; for field EPSP slope: in the presence of cycloheximide (60 μM), at 60 min after PP-LFS
Method: as §1, §2
To examine the role of CYFIP1 in mGluR-LTD, field EPSPs were recorded at Schaffer collateral-CA1 synapses in acute hippocampal slices prepared from wild-type and Cyfip1 heterozygous mice.
One of the most striking abnormalities in experimental synaptic plasticity observed in the absence of FMRP is that mGluR-LTD is independent of protein synthesis in these animals. As the Cyfip1 heterozygotes have enhanced LTD, similar to what is observed in the absence of FMRP, mGluR-LTD in the presence of the protein synthesis inhibitor cycloheximide was examined.

Cc1cccc(C#Cc2ccccc2)n1 [MPEP, 2-methyl-6-(phenylethynyl)-pyridine]
effect of mGluR blockade on DHPG-induced LTD [1]: did not cause any change

C[C@@H]1C[C@@H]([C@H](O)CC2CC(=O)NC(=O)C2)C(=O)[C@@H](C)C1 [cycloheximide]
field EPSP slope [2]: 99±8 % of baseline and 100.8±8.2 % of baseline
inhibition of protein synthesis-dependent LTP, comparison between genotypes ([2]; wild-type vs Cyfip1 heterozygous mice, cycloheximide 60 μM, rapamycin 20 nM): did not differ between genotypes
effect on PP-LFS-induced LTD ([3]; Cyfip1 heterozygous animals): not affected
field EPSP slope ([3]; Cyfip1 heterozygous slices): 68.49±8.9 % of baseline
effect on PP-LFS-induced LTD ([3]; wild-type littermate controls): inhibited LTD
field EPSP slope ([3]; wild-type slices): 98.05±2.5 % of baseline
effect on DHPG-induced LTD ([1]; wild-type mice, 60 μM cycloheximide, DHPG 50 μM): reduced LTD

Cc1cc(C(=O)O)ccc1[C@H](N)C(=O)O [LY367385]
effect of mGluR blockade on DHPG-induced LTD [1]: did not cause any change

NC(C(=O)O)c1cc(O)cc(O)c1 (racemic) [DHPG, (RS)-3,5-dihydroxyphenylglycine]
depression in synaptic transmission (field EPSP slope) ([1]; Cyfip1 heterozygous mice, DHPG 50 μM): 70.5±6 % of baseline
depression in synaptic transmission (field EPSP slope) ([1]; wild-type mice, DHPG 50 μM): 81.2±3 % of baseline
